Results reported in US20230085307A1, “PYRIDAZINONE COMPOUND AND HERBICIDE” (NISSAN CHEMICAL CORPORATION, priority 2019, published 2023).

Tests used:
wild oat = assay: Test Example 5: herbicidal effect by foliage application, plastic box (Table 20, symbol I); type: in vivo, wild oat (Avena fatua); conditions: foliage application, AAH 320 g/ha, evaluated three weeks after application
Method in brief: (§1)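 Foliar spray test: emulsion formulation diluted in water to a set application rate, sprayed onto 14-day-old plants raised in diluvial soil at 25° C to 30° C under glass. Both herbicidal effect and crop effect rated visually three weeks later.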

Japanese bulrush = assay: Test Example 2: herbicidal activity, application during weed generation under submerged conditions (Table 17, symbol B); type: in vivo, Japanese bulrush (Schoenoplectus juncoides); conditions: AAH 320 g/ha; application during weed generation, submerged conditions
Protocol: (§2) [Test Example 2] Herbicidal Activity Test by Application during Weed Generation under Submerged Conditions After alluvial soil was placed into 1/10000 are of Wagner pot, water was poured and mixed to form a submerged condition having a water depth of 4 cm. Seeds of late watergrass, Japanese bulrush, and oval-leafed pondweed were sowed in a mixed manner in the aforementioned pot, and the pot was placed in a greenhouse at 25° C. to 30° C. for growth of the plants. When late watergrass, Japanese bulrush, and oval-leafed pondweed were grown to one leaf stage to two leaf stage, the emulsion agent of the compound of the present invention prepared according to Formulation Example 2 was diluted with water so as to achieve a predetermined herbicide amount, and the diluted emulsion agent was applied to the surface of the water. Three weeks after the herbicide application, the effect of the herbicide on each plant was evaluated according to the criteria of Test Example 1.

lambsquarters [1] = assay: Test Example 5: herbicidal effect by foliage application, plastic box (Table 20, symbol O); type: in vivo, lambsquarters (Chenopodium album); conditions: foliage application
Method in brief: as §1

chickweed = assay: Test Example 5: herbicidal effect by foliage application, plastic box (Table 20, symbol P); type: in vivo, common chickweed (Stellaria media); conditions: foliage application, AAH 320 g/ha, evaluated three weeks after application
Method in brief: as §1

barnyard grass [2] = assay: Test Example 3: herbicidal effect by foliage application, Wagner pot (Table 18, symbol H); type: in vivo, barnyard grass (Echinochloa crus-galli); conditions: amount of applied herbicide 320 g/ha
Method in brief: (§3)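 Plants were sown in alluvial soil held under 0.1–0.5 cm standing water and grown 14 days in a greenhouse at 25–30 °C. An emulsifiable formulation, water-diluted to the set dose, was then sprayed onto the foliage, and effects were scored three weeks later using previously defined criteria.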

Italian ryegrass = assay: Test Example 5: herbicidal effect by foliage application, plastic box (Table 20, symbol K); type: in vivo, Italian ryegrass (Lolium multiflorum); conditions: foliage application, AAH 320 g/ha, evaluated three weeks after application
Method in brief: as §1

redroot pigweed [3] = assay: Test Example 5: herbicidal effect by foliage application, plastic box (Table 20, symbol N); type: in vivo, redroot pigweed (Amaranthus retroflexus); conditions: foliage application
Method in brief: as §1

windgrass = assay: Test Example 5: herbicidal effect by foliage application, plastic box (Table 20, symbol L); type: in vivo, windgrass (Apera spica-venti); conditions: foliage application, AAH 320 g/ha, evaluated three weeks after application
Method in brief: as §1

velvetleaf [4] = assay: Test Example 5: herbicidal effect by foliage application, plastic box (Table 20, symbol M); type: in vivo, velvetleaf (Abutilon theophrasti); conditions: foliage application
Method in brief: as §1

southern crabgrass [5] = assay: Test Example 5: herbicidal effect by foliage application, plastic box (Table 20, symbol F); type: in vivo, southern crabgrass (Digitaria ciliaris); conditions: foliage application
Method in brief: as §1

oval-leafed pondweed = assay: Test Example 2: herbicidal activity, application during weed generation under submerged conditions (Table 17, symbol C); type: in vivo, oval-leafed pondweed (Monochoria vaginalis); conditions: AAH 320 g/ha; application during weed generation, submerged conditions
Protocol: as §2

Chinese sprangletop = assay: Test Example 3: herbicidal effect by foliage application, Wagner pot (Table 18, symbol D); type: in vivo, chinese sprangletop (Leptochloa chinensis); conditions: amount of applied herbicide 320 g/ha
Method in brief: as §3

blackgrass = assay: Test Example 5: herbicidal effect by foliage application, plastic box (Table 20, symbol J); type: in vivo, blackgrass (Alopecurus myosuroides); conditions: foliage application, AAH 320 g/ha, evaluated three weeks after application
Method in brief: as §1

late watergrass = assay: Test Example 2: herbicidal activity, application during weed generation under submerged conditions (Table 17, symbol A); type: in vivo, late watergrass (Echinochloa oryzicola); conditions: AAH 320 g/ha; application during weed generation, submerged conditions
Method in brief: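 Effect on each weed is rated three weeks post-treatment, using the same scoring criteria as the preceding test. Plants grow from mixed-sown seed in flooded alluvial soil (4 cm water) at 25° C. to 30° C., and are treated at one to two leaves with diluted emulsion dropped onto the water.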

barnyard grass [6] = assay: Test Example 5: herbicidal effect by foliage application, plastic box (Table 20, symbol H); type: in vivo, barnyard grass (Echinochloa crus-galli); conditions: foliage application
Method in brief: as §1

green foxtail [7] = assay: Test Example 5: herbicidal effect by foliage application, plastic box (Table 20, symbol G); type: in vivo, green foxtail (Setaria viridis); conditions: foliage application
Method in brief: as §1

rice flat sedge = assay: Test Example 3: herbicidal effect by foliage application, Wagner pot (Table 18, symbol E); type: in vivo, rice flat sedge (Cyperus iria); conditions: amount of applied herbicide 320 g/ha
Method in brief: as §3

green foxtail [8] = assay: Test Example 4: herbicidal effect by soil treatment (Table 19, symbol G); type: in vivo, green foxtail (Setaria viridis); conditions: amount of applied herbicide 320 g/ha
Method in brief: (§4)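 Step 1: sow seeds in sterilized diluvial soil, cover ~1.5 cm. Step 2: spray diluted emulsion onto soil surface at predetermined rate. Step 3: greenhouse, 25–30° C, three weeks. Step 4: grade effect on each plant by earlier criteria.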

velvetleaf [9] = assay: Test Example 4: herbicidal effect by soil treatment (Table 19, symbol M); type: in vivo, velvetleaf (Abutilon theophrasti); conditions: amount of applied herbicide 320 g/ha
Method in brief: as §4

lambsquarters [10] = assay: Test Example 4: herbicidal effect by soil treatment (Table 19, symbol O); type: in vivo, lambsquarters (Chenopodium album); conditions: amount of applied herbicide 320 g/ha
Method in brief: as §4

southern crabgrass [11] = assay: Test Example 4: herbicidal effect by soil treatment (Table 19, symbol F); type: in vivo, southern crabgrass (Digitaria ciliaris); conditions: amount of applied herbicide 320 g/ha
Method in brief: as §4

barnyard grass [12] = assay: Test Example 4: herbicidal effect by soil treatment (Table 19, symbol H); type: in vivo, barnyard grass (Echinochloa crus-galli); conditions: amount of applied herbicide 320 g/ha
Method in brief: as §4

redroot pigweed [13] = assay: Test Example 4: herbicidal effect by soil treatment (Table 19, symbol N); type: in vivo, redroot pigweed (Amaranthus retroflexus); conditions: amount of applied herbicide 320 g/ha
Method in brief: as §4

[14] = AAH 320 g/ha, evaluated three weeks after application
[15] = 320 g/ha, three weeks after application

## COCCOc1cccc(-c2sc3ccc(F)cc3c2-c2c(O)c(C)nn(C)c2=O)c1 [2-271]
Wild oat
  I: wild oat, herbicidal effect (criteria 0-5): 0 (Herbicidal rate of 5% or less (almost no effect))
Japanese bulrush
  herbicidal effect rating, B: Japanese bulrush: 0 (Herbicidal rate of 5% or less (almost no effect))
Lambsquarters [1]; [14]
  O: lambsquarters, herbicidal effect (criteria 0-5): 0 (Herbicidal rate of 5% or less (almost no effect))
chickweed
  P: chickweed, herbicidal effect (criteria 0-5): 5 (Herbicidal rate of 90% or more (almost completely withered))
Barnyard grass [2]
  herbicidal effect on H: barnyard grass: 3 (Herbicidal rate of 40% or more and less than 70%)
Italian ryegrass
  K: Italian ryegrass, herbicidal effect (criteria 0-5): 0 (Herbicidal rate of 5% or less (almost no effect))
Redroot pigweed [3]; [14]
  N: redroot pigweed, herbicidal effect (criteria 0-5): 3 (Herbicidal rate of 40% or more and less than 70%)
windgrass
  L: windgrass, herbicidal effect (criteria 0-5): 0 (Herbicidal rate of 5% or less (almost no effect))
Velvetleaf [4]; [14]
  M: velvetleaf, herbicidal effect (criteria 0-5): 0 (Herbicidal rate of 5% or less (almost no effect))
Southern crabgrass [5]; [14]
  F: southern crabgrass, herbicidal effect (criteria 0-5): 0 (Herbicidal rate of 5% or less (almost no effect))
oval-leafed pondweed
  herbicidal effect rating, C: oval-leafed pondweed: 0 (Herbicidal rate of 5% or less (almost no effect))
Chinese sprangletop
  herbicidal effect on D: Chinese sprangletop: 0 (Herbicidal rate of 5% or less (almost no effect))
blackgrass
  J: blackgrass, herbicidal effect (criteria 0-5): 0 (Herbicidal rate of 5% or less (almost no effect))
Late watergrass
  herbicidal effect rating, A: late watergrass: 3 (Herbicidal rate of 40% or more and less than 70%)
Barnyard grass [6]; [14]
  H: barnyard grass, herbicidal effect (criteria 0-5): 0 (Herbicidal rate of 5% or less (almost no effect))
Green foxtail [7]; [14]
  G: green foxtail, herbicidal effect (criteria 0-5): 0 (Herbicidal rate of 5% or less (almost no effect))
Rice flat sedge
  herbicidal effect on E: rice flat sedge: 3 (Herbicidal rate of 40% or more and less than 70%)

## Cc1ccc2sc(-c3ccc(OC(F)F)cc3)c(-c3c(O)c(C)nn(C)c3=O)c2c1 [2-459]
Japanese bulrush
  herbicidal effect rating, B: Japanese bulrush: 0 (Herbicidal rate of 5% or less (almost no effect))
Green foxtail [8]
  herbicidal effect, G: green foxtail: 0 (Herbicidal rate of 5% or less (almost no effect))
Lambsquarters [1]; [15]
  O: lambsquarters, herbicidal effect grade: 4 (Herbicidal rate of 70% or more and less than 90%)
Velvetleaf [9]
  herbicidal effect, M: velvetleaf: 1 (Herbicidal rate of 5% or more and less than 20%)
Barnyard grass [2]
  herbicidal effect on H: barnyard grass: 3 (Herbicidal rate of 40% or more and less than 70%)
Lambsquarters [10]
  herbicidal effect, O: lambsquarters: 4 (Herbicidal rate of 70% or more and less than 90%)
Redroot pigweed [3]; [15]
  N: redroot pigweed, herbicidal effect grade: 4 (Herbicidal rate of 70% or more and less than 90%)
Velvetleaf [4]; [15]
  M: velvetleaf, herbicidal effect grade: 4 (Herbicidal rate of 70% or more and less than 90%)
Southern crabgrass [5]; [15]
  F: southern crabgrass, herbicidal effect grade: 0 (Herbicidal rate of 5% or less (almost no effect))
oval-leafed pondweed
  herbicidal effect rating, C: oval-leafed pondweed: 0 (Herbicidal rate of 5% or less (almost no effect))
Southern crabgrass [11]
  herbicidal effect, F: southern crabgrass: 0 (Herbicidal rate of 5% or less (almost no effect))
Chinese sprangletop
  herbicidal effect on D: Chinese sprangletop: 0 (Herbicidal rate of 5% or less (almost no effect))
Late watergrass
  herbicidal effect rating, A: late watergrass: 3 (Herbicidal rate of 40% or more and less than 70%)
Barnyard grass [6]; [15]
  H: barnyard grass, herbicidal effect grade: 0 (Herbicidal rate of 5% or less (almost no effect))
Barnyard grass [12]
  herbicidal effect, H: barnyard grass: 0 (Herbicidal rate of 5% or less (almost no effect))
Green foxtail [7]; [15]
  G: green foxtail, herbicidal effect grade: 0 (Herbicidal rate of 5% or less (almost no effect))
Redroot pigweed [13]
  herbicidal effect, N: redroot pigweed: 5 (Herbicidal rate of 90% or more (almost completely withered))
Rice flat sedge
  herbicidal effect on E: rice flat sedge: 0 (Herbicidal rate of 5% or less (almost no effect))

## Cc1cc2sc(-c3ccc(OC(F)(F)F)cc3)c(-c3c(O)c(C)nn(C)c3=O)c2cc1C [5-109]
Japanese bulrush
  herbicidal effect rating, B: Japanese bulrush: 0 (Herbicidal rate of 5% or less (almost no effect))
oval-leafed pondweed
  herbicidal effect rating, C: oval-leafed pondweed: 0 (Herbicidal rate of 5% or less (almost no effect))
Late watergrass
  herbicidal effect rating, A: late watergrass: 2 (Herbicidal rate of 20% or more and less than 40%)
